Where a SMILES comes first, the peptide text is derived from it.
Legend:
EcPBP3 [1] = target: T1, EcPBP3 (Escherichia coli, UniProt P0AD68); experiment: Fluorescence polarisation competition assay with fluorescent Bicycle tracer (tracer 1 / BCY12820); assay type: binding; conditions: protein 9.4 nM sets sensitivity limit, top concentration 5 µM, read-out: Ki (nM) by fluorescence polarisation with tracer 1 (BCY12820 as tracer), Geometric mean (Lower 95% CI; Upper 95% CI, n=number of values)
T1 construct: For assays, selections and SPR a construct with residues 60–588 which has the N-terminal domain, but not the transmembrane helix, was used; made in house
T1 sequence (P0AD68 60-588): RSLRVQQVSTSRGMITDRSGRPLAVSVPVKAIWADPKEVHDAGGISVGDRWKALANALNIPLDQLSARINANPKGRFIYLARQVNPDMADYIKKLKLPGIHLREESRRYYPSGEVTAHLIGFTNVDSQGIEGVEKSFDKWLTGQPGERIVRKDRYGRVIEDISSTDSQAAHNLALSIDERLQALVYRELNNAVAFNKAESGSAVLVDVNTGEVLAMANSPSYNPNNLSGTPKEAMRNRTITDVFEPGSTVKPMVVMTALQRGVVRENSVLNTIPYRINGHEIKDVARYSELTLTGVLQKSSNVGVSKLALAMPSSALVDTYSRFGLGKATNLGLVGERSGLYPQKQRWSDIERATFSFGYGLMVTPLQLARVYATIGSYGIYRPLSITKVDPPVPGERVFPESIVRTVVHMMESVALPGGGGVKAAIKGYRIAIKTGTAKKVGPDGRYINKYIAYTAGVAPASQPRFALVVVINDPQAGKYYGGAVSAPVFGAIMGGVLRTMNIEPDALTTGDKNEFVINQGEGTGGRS
Protocol: Competition fluorescence polarisation assays were run by observing the fluorescence polarisation of a fluorescent “tracer” Bicycle molecule which competes against an unlabelled peptide for binding to the EcPBP3 target. 10 µL of protein (9.4 nM) was mixed with either 5 µL of peptide or 5 µL of buffer and then the assay was initiated by the addition of 10 µL of tracer (1 nM) (final volume 25 µL), in a black 384 low bind, low volume plate (Corning). The buffer was 10 mM HEPES (Sigma), 2% (v/v) glycerol (Sigma), 300 mM NaCl (Sigma), adjusted to pH 8. The plate was incubated for 1 h at 25 °C and then read in a PHERAstar FS (BMG) using with an “FP 485 520 520” optic module (excitation 485 nm, emission 520 nm). The gain was determined immediately prior to the read on a tracer-only well.
Dotmatics (Dotmatics) workflows performing the above calculations were used to process the data. Values quoted are the geometric means of at least 2 repeats.

EcPBP3 [2] = target: T1, EcPBP3; experiment: SPR binding assay on immobilised EcPBP3; conditions: 37 °C, kinetic fitting; NB = no binding at 2500 nM (Tables S-4, S-5) or 5000 nM (Table 1); read-out: Kd (nM) by SPR (geomean)
Summary of the method: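 EcPBP3 amine-coupled to CM5 chip (1500-2500 RU); compounds injected at 37 °C in 10 mM HEPES pH 8.0, 200 mM NaCl, 0.05% Tween-20, 2% DMSO, 50 μL min^–1, 150 s contact, 2400 s dissociation. Double-referenced sensorgrams kinetically fitted for Kd; geometric mean of ≥2 biological replicates.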

SMILES	Ki (EcPBP3 [1]) [nM]	Kd (EcPBP3 [2]) [nM]
CC(C)[C@@H]1NC(=O)[C@H](Cc2c[nH]c3ccccc23)NC(=O)[C@@H]2CCCN2C(=O)[C@@H]2CSCCC(=O)N3CN(CN(C3)C(=O)CCSC[C@H](NC(=O)[C@H](C)N)C(=O)N[C@@H](Cc3ccccc3)C(=O)N[C@@H](Cc3ccccc3)C(=O)N3CCC[C@H]3C(=O)N[C@@H](CCCCNC(=N)N)C(=O)N2)C(=O)CCSC[C@@H](C(=O)N[C@@H](C)C(N)=O)NC(=O)CNC(=O)[C@H](CCC(=O)O)NC1=O [Peptide 28] (HELM PEPTIDE1{A.C.F.F.P.[N=C(N)NCCCC[C@H](N[*:1])C(=O)[*:2]].C.P.W.V.E.G.C.A.[am]}|CHEM1{[O=C(CC[*:1])N1CN(C(=O)CC[*:2])CN(C(=O)CC[*:3])C1]}$PEPTIDE1,CHEM1,2:R3-1:R1|PEPTIDE1,CHEM1,7:R3-1:R2|PEPTIDE1,CHEM1,13:R3-1:R3$$$V2.0)	< 9	1.12
CC(C)[C@@H]1NC(=O)[C@H](Cc2c[nH]c3ccccc23)NC(=O)[C@@H]2CCCN2C(=O)[C@@H]2CSCCC(=O)N3CN(CN(C3)C(=O)CCSC[C@H](NC(=O)[C@H](C)N)C(=O)N[C@@H](CO)C(=O)N[C@@H](Cc3ccccc3)C(=O)N[C@@H](C)C(=O)N[C@@H](CCCCN)C(=O)N2)C(=O)CCSC[C@@H](C(=O)N[C@@H](C)C(N)=O)NC(=O)CNC(=O)[C@H](CCC(=O)O)NC1=O [Peptide 18]	76.9	178
CC(C)[C@@H]1NC(=O)[C@H](Cc2c[nH]c3ccccc23)NC(=O)[C@@H]2CCCN2C(=O)[C@@H]2CSCCC(=O)N3CN(CN(C3)C(=O)CCSC[C@@H](C(=O)N[C@@H](C)C(N)=O)NC(=O)[C@H](Cc3ccc(O)cc3)NC(=O)[C@H](CCC(=O)O)NC1=O)C(=O)CCSC[C@H](NC(=O)[C@H](C)N)C(=O)N[C@@H](CO)C(=O)N[C@@H](Cc1ccccc1)C(=O)N1CCC[C@H]1C(=O)N[C@@H](CCCCNC(=N)N)C(=O)N2 [Peptide 51] (HELM PEPTIDE1{A.C.S.F.P.[N=C(N)NCCCC[C@H](N[*:1])C(=O)[*:2]].C.P.W.V.E.Y.C.A.[am]}|CHEM1{[O=C(CC[*:1])N1CN(C(=O)CC[*:2])CN(C(=O)CC[*:3])C1]}$PEPTIDE1,CHEM1,2:R3-1:R1|PEPTIDE1,CHEM1,7:R3-1:R2|PEPTIDE1,CHEM1,13:R3-1:R3$$$V2.0)	< 9	1.83
CC(C)[C@@H]1NC(=O)[C@H](Cc2c[nH]c3ccccc23)NC(=O)[C@@H]2CCCN2C(=O)[C@@H]2CSCCC(=O)N3CN(CN(C3)C(=O)CCSC[C@H](NC(=O)[C@H](C)N)C(=O)N[C@@H](CO)C(=O)N[C@@H](Cc3ccccc3)C(=O)N3CCC[C@H]3C(=O)N[C@@H](CCCCN)C(=O)N2)C(=O)CCSC[C@@H](C(=O)N[C@@H](C)C(N)=O)NC(=O)CNC(=O)[C@H](C)NC1=O [Peptide 23]	9.08	6.71
CC(C)[C@@H]1NC(=O)[C@H](Cc2c[nH]c3ccccc23)NC(=O)[C@@H]2CCCN2C(=O)[C@@H]2CSCCC(=O)N3CN(CN(C3)C(=O)CCSC[C@@H](C(=O)N[C@@H](C)C(N)=O)NC(=O)[C@H](C)NC(=O)[C@H](CCC(=O)O)NC1=O)C(=O)CCSC[C@H](NC(=O)[C@H](C)N)C(=O)N[C@@H](CO)C(=O)N[C@@H](Cc1ccccc1)C(=O)N1CCC[C@H]1C(=O)N[C@@H](CCCCN)C(=O)N2 [Peptide 24]	25.5	24.4
CC(C)[C@@H]1NC(=O)[C@H](Cc2c[nH]c3ccccc23)NC(=O)[C@@H]2CCCN2C(=O)[C@@H]2CSCCC(=O)N3CN(CN(C3)C(=O)CCSC[C@H](NC(=O)[C@H](C)N)C(=O)N[C@@H](CCC(N)=O)C(=O)N[C@@H](Cc3ccccc3)C(=O)N3CCC[C@H]3C(=O)N[C@@H](CCCCNC(=N)N)C(=O)N2)C(=O)CCSC[C@@H](C(=O)N[C@@H](C)C(N)=O)NC(=O)CNC(=O)[C@H](CCC(=O)O)NC1=O [Peptide 30] (HELM PEPTIDE1{A.C.Q.F.P.[N=C(N)NCCCC[C@H](N[*:1])C(=O)[*:2]].C.P.W.V.E.G.C.A.[am]}|CHEM1{[O=C(CC[*:1])N1CN(C(=O)CC[*:2])CN(C(=O)CC[*:3])C1]}$PEPTIDE1,CHEM1,2:R3-1:R1|PEPTIDE1,CHEM1,7:R3-1:R2|PEPTIDE1,CHEM1,13:R3-1:R3$$$V2.0)	< 9	
